Source: patent US20060089335A1, “Compositions and methods for enhancing cognitive function and synaptic plasticity” (priority 2003, published 2006)
“Also recorded” adds a separate entry of the source.

Key:
[1] = tested on: recognition memory of 1-year old rats; assay: novel object recognition; conditions: rat, in vivo
Experimental: Behavior test: Novel object recognition. The subjects were 20 experimentally naive, female, Sprague-Dawley rats (Charles River), 1 year old at the beginning of the experiment. They were housed two per cage with continuous access to food and water under a 12:12 light-dark cycle, with light onset at 8:00 a.m. Rats in the Mg^++-treated group received drinking water containing 6 mg/kg/day MgCl2 for 4 months before experiments.
The rats were first habituated to the open-field arena by allowing them to explore it for two daily 15-min sessions. Two identical objects were present in the arenas during habituation sessions; those objects were not used in the subsequent experimental trials. The rat was placed into the arena with two identical sample objects and allowed to explore for 10 min (familiarization phase). For the double-training test, the familiarization phase was repeated with the interval of 10 min. The rat was then removed and the objects were replaced with two new objects; one of the new objects was identical to the sample and the other was a novel object that the rat had never before encountered. The rat was returned to the arena for the retention test and allowed to explore for 5 min (retention test). The retention intervals were 10 min and 24 hours. Rats spent the retention interval in a cage in the colony room. Objects were cleaned thoroughly between trials with 20% ethanol solution to ensure the absence of olfactory cues. The particular objects for a given trial were randomly determined, but each object was used for only one trial per rat.
The criteria for exploration were strictly based on active exploration, in which rats had to be sniffing or touching the object with the nose and/or forepaws. The main dependent measure was the exploration ratio, that is, the proportion of total object-exploration that was spent exploring the novel object (tnovel/[tnovel+tfamiliar]) during the 5-min test phase. To determine whether the rats discriminated between the novel and familiar objects, the exploration ratios obtained under each condition were compared with what would be expected by chance (i.e., a ratio of ˜50%), using one-sample Student's t tests.

synapsin1 = assay: quantitative Western blotting of hippocampal homogenate; conditions: rat, in vivo
Experimental: (§1) Quantitative Western blotting. Samples of hippocampal homogenate (10 ug/sample) were resolved on polyacrylamide gels, transferred to PVDF, and probed with anti-NR1 (Chemicon), NR2A (Upstate) or NR2B (Santa Cruz Biotech), GluR1 (Chemicon), Synapsin1 (American Qualex), or PSD-95 (Upstate) antibody followed by the appropriate secondary antibody coupled to horseradish peroxidase (1:10,000, Santa Cruz Biotech) in Tris-buffered saline (pH 7.3) containing 5% dry milk and 0.1% Tween (BioRad). Visualization of immunoreactive bands was achieved by enhanced chemiluminescence (Perkin Elmer Biosciences) and captured on autoradiography film (Kodak Scientific). Standard curves, in which the amount of protein was varied systematically, were constructed to establish that we operated within the linear range of the chemiluminescence detection method. In addition, each immunoblot was exposed to autoradiography film multiple times (average 7; minimum 5) for varying duration to make sure we operated in the linear range of the film for each experiment. Digital images, produced by scanning films on a Epson 3200 Scanner (Epson) with Epson Scan Software (Epson), were quantified using GelPro Analyzer 3.1 software. The integrated optical density (IOD) of each immunoreactive band from hippocampal samples relative to baseline measured immediately above and below the band in the same lane, and normalized by the actin or neurofilament band also in the same lane. Group data (eight animals per group) are represented as the mean+/−SEM of the IOD of samples.

NR2A = assay: as above; conditions: rat, in vivo
Experimental: as §1

NR1 = assay: as above; conditions: rat, in vivo
Experimental: as §1

GluR1 = assay: as above; type: in vivo, rat; conditions: rat, in vivo, 6 mg/kg/day
Experimental: as §1

NR2B = assay: as above; type: in vivo, rat; conditions: rat, in vivo
Experimental: as §1

NMDAR = assay: voltage-dependence of NMDAR Mg^2+ block, NMDA currents evoked by glutamate iontophoresis; type: cell-based, rat
Description: Analysis of voltage-dependence of NMDAR Mg^2+ block. For studying the voltage-dependence of NMDAR Mg^2+ block, NMDA currents were evoked by local application of glutamate using the high-speed iontophoresis technique (Murnick et al., 2002). The current traces for each cell were normalized to their value at +40 mV membrane potential. The voltage dependency of NMDA currents was modeled using the Woodhull function (Woodhull, 1973). The NMDA channel conductance in the presence and absence of Mg^2+ was related according to the relationship: [formula] • where KMg is the voltage-independent affinity of Mg^2+ for the channel (0 mV membrane potential), δ is the electrical distance of the Mg^2+ binding site in the membrane field, E is membrane potential, and z is the valence of the blocking ion. RT/F was 25.4 mV (21° C.).
Although the biophysics of Mg^2+ block have been studied extensively (Mayer et al., 1984; Nowak et al., 1984; Jahr and Stevens, 1990), we wished to determine precisely the behavior of the Mg^2+ block at near-physiologic concentrations. […] We evoked NMDA currents by iontophoretic application of glutamate to a putative single bouton identified by FM 1-43 labeling and recorded under whole cell patch clamp in the presence of the AMPAR blocker, NBQX (10 μM). […] (Renger et al., 2001).

## [Mg+2] [Mg^++]
[1]
  effect on exploratory activity or motivation: no effect on exploratory activity or motivation
  exploratory preference towards the novel object, short-term and long-term memory trials: significant exploratory preference towards the novel object
  preference to the novel object, long-term: 60%
  preference to the novel object, short-term memory test: 75%
  preference towards the novel object, long-term memory test: retained the same level of preference for 24 hours; also recorded: significant exploratory preference towards the novel object in long-term memory trials
  total time exploring both identical objects during training: 24.1 ± 2.5 s
synapsin1
  change of synapsin1: no significant changes
NR2A
  change of NR2A: no significant changes
NR1
  change of NR1: no significant changes
GluR1
  increase in amount of GluR1: approximately 60%
NR2B
  increase in levels of NR2B protein: two-fold increase
NR2B; 6 mg/kg/day
  increase in amount of NR2B: approximately 60%
NMDAR
  effect on NMDA current: had no effect
  reduction (attenuation) of NMDA current: ~60%
  reduction of EPSCNMDA amplitude: 50%
  size of outward EPSCNMDA: remained relatively unchanged
